Patent US8202969B2, “Platelet derived growth factor receptor alpha (PDGFRA) polypeptides comprising activating mutation(s)” (Oregon Health & Science University, priority 2002, dated 2012)
Counter-ions that a name gives are not always drawn.

Columns and labels:
[1] = target: wild-type KIT (Homo sapiens, UniProt P10721); details: cited from earlier work
[2] = system: KIT activating mutations involving the extracellular, juxtamembrane and TK1 domain; details: cited from earlier work
[3] = system: KIT activation loop mutations that involve residues other than aspartic acid 816; details: cited from earlier work
[4] = system: KIT D816 mutations (D816V, D816Y, D816F, D816H); details: or equivalent D814 residue in murine KIT; cited from earlier work
[5] = system: CHO cells; assay: Tyrosine phosphorylation of wild-type and mutant PDGFRA transiently expressed in CHO cells (immunoblot); format: cell-based, Chinese hamster; details: for change of tyrosine phosphorylation by ligand stimulation: CHO cells, 100 ng/ml recombinant human PDGF-AA for 10 minutes; for baseline tyrosine phosphorylation: transient expression in CHO cells, serum starved overnight, vehicle
Method: FIG. 8: DGFRA mutations in GISTs result in constitutive activation of PDGFRA kinase. […] CHO cells were transiently transfected with expression vectors encoding cDNAs for wild-type or mutant PDGFRA. Transfected cells were serum starved overnight and treated with vehicle or ligand (recombinant human PDGF-AA) for 10 minutes. Whole cell lysates were immunostained sequentially for phospho-tyrosine and PDGFRA. […] In contrast, the mutant PDGFRA proteins display ligand-independent phosphorylation.
PDGFRA mutations were cloned by site-directed mutagenesis of the wild type PDGFRA cDNA. CHO cells were transiently transfected with expression vectors encoding for mutant or wild-type PDGFRA cDNA. Transfected cells were serum starved overnight and stimulated with vehicle or 100 ng/ml recombinant human PDGF-AA for 10 minutes before harvesting cells and preparing whole cell lysates for immunoblotting. The membranes were sequentially immunoblotted with antiserum against phosphorylated tyrosines (PY20 Transduction Laboratories) or total PDGFRA (Santa Cruz sc-338).

wild-type KIT, sequence (P10721 26-976): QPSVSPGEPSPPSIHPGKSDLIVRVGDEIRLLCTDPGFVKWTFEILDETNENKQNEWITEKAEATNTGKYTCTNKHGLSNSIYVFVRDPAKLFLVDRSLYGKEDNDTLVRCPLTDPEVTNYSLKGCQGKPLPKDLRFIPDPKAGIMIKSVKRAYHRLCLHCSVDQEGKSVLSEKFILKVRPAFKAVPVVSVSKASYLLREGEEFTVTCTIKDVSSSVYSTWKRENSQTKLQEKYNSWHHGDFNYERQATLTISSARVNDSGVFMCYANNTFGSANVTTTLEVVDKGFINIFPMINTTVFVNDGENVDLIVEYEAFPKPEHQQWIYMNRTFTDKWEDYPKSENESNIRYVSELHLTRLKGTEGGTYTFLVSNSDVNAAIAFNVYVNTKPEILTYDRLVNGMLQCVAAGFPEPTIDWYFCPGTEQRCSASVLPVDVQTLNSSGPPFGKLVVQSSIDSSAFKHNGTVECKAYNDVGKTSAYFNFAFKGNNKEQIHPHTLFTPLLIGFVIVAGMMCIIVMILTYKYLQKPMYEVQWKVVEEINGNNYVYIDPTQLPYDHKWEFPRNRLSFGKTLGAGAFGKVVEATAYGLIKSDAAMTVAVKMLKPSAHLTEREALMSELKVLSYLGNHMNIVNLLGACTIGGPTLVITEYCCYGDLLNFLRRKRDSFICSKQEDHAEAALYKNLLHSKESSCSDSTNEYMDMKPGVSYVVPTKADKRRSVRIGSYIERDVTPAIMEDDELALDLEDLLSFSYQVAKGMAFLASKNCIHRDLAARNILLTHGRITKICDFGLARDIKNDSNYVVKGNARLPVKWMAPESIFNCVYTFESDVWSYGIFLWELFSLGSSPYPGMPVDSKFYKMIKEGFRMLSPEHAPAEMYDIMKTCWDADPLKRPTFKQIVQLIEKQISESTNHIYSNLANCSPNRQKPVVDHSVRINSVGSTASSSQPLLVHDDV

## Cc1ccc(NC(=O)c2ccc(CN3CCN(C)CC3)cc2)cc1Nc1nccc(-c2cccnc2)n1 [imatinib mesylate]
[1]
  activity against the kinase activity of wild-type KIT: highly active
[2]
  activity against KIT activating mutations involving the extracellular, juxtamembrane and TK1 domain: highly active
[3]
  activity against other KIT activation loop mutations: some activity
[4]
  activity against KIT D816 mutations: no clinically useful activity

## non-mutant PDGFRA: human PDGFRA protein, SEQ ID NO: 2
[5]
  change of tyrosine phosphorylation by ligand stimulation: substantially increased
  baseline tyrosine phosphorylation: weak
[5]; listed as Wild type PDGFRA
  change of tyrosine phosphorylation by ligand stimulation: upregulated
  baseline tyrosine phosphorylation: low-level phosphorylation
